What all share (experiment): ≥ marks a high value that may be exact or a test limit, other limits are often not marked, values filed in µg/mL are converted to µM
Experiment [1] has as its system Bacillus subtilis ATCC 62037.
Experiment [2] relates to Candida albicans ATCC 10231.
Experiment [3] relates to Escherichia coli ATCC 27325.
Experiment [4] relates to Pseudomonas putida ATCC 17426.
Experiment [5] relates to Saccharomyces cerevisiae ATCC 44774.
For experiment [6], the system named is Salmonella enterica subsp. enterica serovar Enteritidis ATCC 13076.
Experiment [7] concerns Staphylococcus aureus ATCC 15752.
Experiment [8] relates to Streptococcus mutans ATCC 25175.
The test system of experiment [9] is Escherichia coli ATCC 25922.
Experiment [10] relates to Klebsiella pneumoniae ATCC 700603.
Experiment [11] has as its system Pseudomonas aeruginosa ATCC 27853.
The test system of experiment [12] is Staphylococcus aureus ATCC 29213.
Experiment [13] has as its system Staphylococcus aureus ATCC 33591.
The test system of experiment [14] is Staphylococcus aureus ATCC 700699.
The subject of experiment [15] is Cronobacter muytjensii ATCC 51329.
Experiment [16] concerns Cronobacter sakazakii ATCC BAA-894.
In experiment [17] the test system is Cronobacter sakazakii DPC 6440.
Experiment [18] deals with Cronobacter sakazakii DSM 4485.
Experiment [19] concerns Escherichia coli NCIMB 11843.
Experiment [20] concerns Klebsiella pneumoniae NCIMB 13218.
The test system of experiment [21] is Pseudomonas fluorescens NCIMB 9046.
Experiment [22] concerns Salmonella enterica subsp. enterica serovar Typhimurium LT2.
The subject of experiment [23] is Staphylococcus aureus NCTC 8325-4.
The subject of experiment [24] is Staphylococcus aureus Newman.
Experiment [25] has as its system Staphylococcus aureus RF122.
The subject of experiment [26] is Staphylococcus aureus RN4220.
Experiment [27] relates to Staphylococcus aureus SA113.
Experiment [28] concerns Bacillus cereus ATCC 11778.
In experiment [29] the test system is Escherichia coli ATCC 35218.
Experiment [30] concerns Pseudomonas aeruginosa ATCC 9027.
In experiment [31] the test system is Staphylococcus aureus ATCC 25923.
Experiment [32] has as its system Acinetobacter baumannii ATCC BAA-1605.
The subject of experiment [33] is Enterococcus faecium ATCC 700221.
The subject of experiment [34] is Cryptococcus neoformans ATCC 34881.

Each structure is given as a SMILES string. Values after ≈ are worked out from the molar mass of the structure shown.

By MIC is commonly meant the least concentration at which growth counts as inhibited.

As for `CC[C@H](C)[C@H](NC(=O)[C@@H]1CCCN1C(=O)[C@H](Cc1c[nH]c2ccccc12)NC(=O)[C@H](CCC(N)=O)NC(=O)[C@H](CCCN=C(N)N)NC(=O)[C@@H](NC(=O)[C@@H](NC(=O)[C@@H](N)CCCN=C(N)N)C(C)C)C(C)C)C(=O)NCC(=O)N[C@@H](CCCN=C(N)N)C(=O)N[C@H](C(=O)N[C@H](C(=O)N[C@@H](CCCN=C(N)N)C(=O)N[C@@H](CCCN=C(N)N)C(=O)N[C@H](C(=O)N[C@H](C(=O)N[C@@H](CCCN=C(N)N)C(=O)N[C@@H](CCCN=C(N)N)C(=O)N[C@H](C(=O)N[C@H](C(=O)N[C@@H](CCCN=C(N)N)C(=O)N[C@@H](Cc1ccccc1)C(=O)O)C(C)C)C(C)C)C(C)C)C(C)C)C(C)C)C(C)C` [RVVRQWPIGRVVRRVVRRVVRF], the MIC in [1] was 0.717 µM (≈ 2 µg/mL); in [2], 0.179 µM (≈ 0.5 µg/mL); in experiment [3], 1.43 µM (≈ 4 µg/mL); in experiment [4], 1.43 µM (≈ 4 µg/mL); in experiment [5], 0.179 µM (≈ 0.5 µg/mL); in [6], 0.717 µM (≈ 2 µg/mL). The minimum inhibitory concentration (MIC) in experiment [7] and in [8] was 0.717 µM (≈ 2 µg/mL) throughout.
As for `CC[C@H](C)[C@H](NC(=O)[C@H](CC(=O)O)NC(=O)[C@H](CCCCN)NC(=O)[C@H](C)NC(=O)[C@H](C)NC(=O)CNC(=O)[C@H](CCCCN)NC(=O)[C@H](CC(C)C)NC(=O)[C@@H](NC(=O)[C@H](CC(=O)O)NC(=O)[C@H](C)NC(=O)[C@@H](NC(=O)CN)C(C)C)[C@@H](C)CC)C(=O)N[C@@H](C)C(=O)NCC(=O)N[C@@H](Cc1cnc[nH]1)C(=O)N[C@@H](CC(C)C)C(=O)N[C@@H](C)C(=O)N[C@@H](CO)C(=O)N[C@@H](CCCCN)C(=O)N[C@H](C(=O)N[C@@H](CCSC)C(=O)N[C@@H](CC(N)=O)C(=O)N[C@@H](CCCCN)C(=O)N[C@@H](CC(C)C)C(N)=O)C(C)C` [GVADILKGAAKDIAGHLASKVMNKL], the MIC was above 100 µM in experiment [9]; 100 µM (≈ 252 µg/mL) in [10]; above 100 µM in [11]; above 100 µM in experiment [12]; at least 100 µM in [13]; at least 100 µM in experiment [14].
On to `CC[C@H](C)[C@H](N)C(=O)N[C@@H](CCCCN)C(=O)N[C@@H](CCC(N)=O)C(=O)NCC(=O)N[C@@H](CC(C)C)C(=O)N1CCC[C@H]1C(=O)N[C@@H](CCC(N)=O)C(=O)N[C@@H](CCC(=O)O)C(=O)O` [IKQGLPQE], for which the minimum inhibitory concentration (MIC) in experiment [15], in experiment [16], in experiment [17], in [18], in [19] and in [20] was at least 2500 µM in each case. Besides, the minimal inhibitory concentration (MIC) in experiment [21], in experiment [22], in experiment [23], in experiment [24], in [25] and in [26] was at least 2500 µM in each case. Further, in experiment [27], the MIC is at least 2500 µM.
Regarding `CC(C)C[C@H](NC(=O)[C@@H](NC(=O)[C@@H](N)CCCCN)C(C)C)C(=O)N[C@@H](CCCCN)C(=O)N[C@@H](C)C(=O)N[C@@H](C)C(=O)N[C@@H](C)C(N)=O` [KVLKAAA], the minimal inhibitory concentration (MIC) in experiment [28] is at least 50 µM; in experiment [29], at least 50 µM; in experiment [30] it was above 50 µM; in [31], above 50 µM.
Take `CC[C@H](C)[C@H](NC(=O)[C@H](CC(=O)O)NC(=O)[C@H](CCCCN)NC(=O)[C@H](C)NC(=O)[C@H](C)NC(=O)CNC(=O)[C@H](CCCCN)NC(=O)[C@H](CC(C)C)NC(=O)[C@@H](NC(=O)[C@H](CC(=O)O)NC(=O)[C@@H](NC(=O)[C@@H](NC(=O)CN)C(C)C)C(C)C)[C@@H](C)CC)C(=O)N[C@@H](C)C(=O)NCC(=O)N[C@@H](C)C(=O)N[C@@H](CC(C)C)C(=O)N[C@@H](C)C(=O)N[C@@H](CO)C(=O)N[C@@H](CCCCN)C(=O)N[C@H](C(=O)N[C@@H](CCSC)C(=O)N[C@@H](CC(N)=O)C(=O)N[C@@H](CCCCN)C(=O)N[C@@H](CC(C)C)C(N)=O)C(C)C` [GVVDILKGAAKDIAGALASKVMNKL]: the MIC in [9] was 100 µM (≈ 248 µg/mL); in experiment [10] it was 100 µM (≈ 248 µg/mL); in experiment [11], above 100 µM; in experiment [12], above 100 µM; in experiment [13], at least 100 µM; in experiment [14] it was at least 100 µM.
Turning to `CC[C@H](C)[C@H](NC(=O)[C@H](CCCCN)NC(=O)[C@H](CCCCN)NC(=O)[C@H](Cc1ccccc1)NC(=O)[C@H](CC(C)C)NC(=O)[C@H](CCCN=C(N)N)NC(=O)[C@@H](N)CCCN=C(N)N)C(=O)N[C@@H](CC(C)C)C(=O)N[C@@H](CCCCN)C(=O)N[C@@H](Cc1ccc(O)cc1)C(=O)N[C@@H](CC(C)C)C(N)=O` [RRLFKKILKYL], the minimum inhibitory concentration (MIC) was found to be 3.04 µM (≈ 4.5 µg/mL) in [32]; 11.5 µM (≈ 17 µg/mL) in experiment [33]; 23.3 µM (≈ 34.5 µg/mL) in [9]; 11.5 µM (≈ 17 µg/mL) in experiment [10]; 11.5 µM (≈ 17 µg/mL) in experiment [11]; 23.3 µM (≈ 34.5 µg/mL) in experiment [13].
As for `CC(C)C[C@H](NC(=O)[C@H](CC(N)=O)NC(=O)[C@H](CCC(=O)O)NC(=O)[C@H](CC(N)=O)NC(=O)[C@H](CC(C)C)NC(=O)[C@@H](N)C(C)C)C(=O)N[C@@H](C)C(=O)N[C@@H](C)C(=O)O` [VLNENLAA], the MIC was at least 2500 µM in experiment [15]; at least 1250 µM in [16]; at least 1250 µM in experiment [17]; at least 312 µM in experiment [18]; at least 2500 µM in experiment [19]; at least 2500 µM in [20]. For the same compound, the MIC in experiment [11] was 64 µM (≈ 53.9 µg/mL); in experiment [21] it was at least 2500 µM; in experiment [22], at least 2500 µM; in [23], at least 2500 µM; in [24] it was at least 1250 µM; in experiment [25] it was at least 156 µM. For the same compound, the MIC in experiment [26] was at least 312 µM; in experiment [27], at least 1250 µM.
On to `CC(C)[C@H](NC(=O)[C@H](CCCCN)NC(=O)CNC(=O)CNC(=O)[C@H](CCC(N)=O)NC(=O)[C@H](CCCCN)NC(=O)CNC(=O)[C@H](CCCN=C(N)N)NC(=O)CNC(=O)[C@@H](N)CO)C(=O)N[C@@H](CCCN=C(N)N)C(=O)N[C@@H](C)C(=O)N[C@@H](CCCCN)C(=O)N[C@@H](C)C(=O)N[C@@H](CCCCN)C(=O)N[C@H](C(=O)N[C@@H](CCCN=C(N)N)C(=O)N[C@@H](CO)C(=O)N[C@@H](CO)C(=O)O)[C@@H](C)O` [SGRGKQGGKVRAKAKTRSS], for which the MIC in experiment [1] turned out to be 2.04 µM (≈ 4 µg/mL); in experiment [2], 16.3 µM (≈ 32 µg/mL); in experiment [34] it was 2.04 µM (≈ 4 µg/mL); in experiment [3] it was 4.08 µM (≈ 8 µg/mL); in experiment [4], 8.17 µM (≈ 16 µg/mL); in [5], 8.17 µM (≈ 16 µg/mL). Besides, the figures for the MIC in experiment [6], in [7] and in [8] were 16.3 µM (≈ 32 µg/mL), 8.17 µM (≈ 16 µg/mL) and 16.3 µM (≈ 32 µg/mL), respectively.

Source of the values: DBAASP.
